The compound `CC(C)(C)OC(=O)N[C@H](Cc1cccc(OC(F)(F)C(F)F)c1)[C@@H](O)c1csc(-c2ccccc2)n1` (racemic) [Example 361, tert-butyl (1RS,2RS)-2-hydroxy-2-(2-phenyl-1,3-thiazol-4-yl)-1-[3-(1,1,2,2-tetrafluoroethoxy)benzyl]ethylcarbamate] returned a melting point of 127 to 128 °C.

Take `O=C(CCCc1ccccc1)N[C@H](Cc1cccc(C(F)(F)F)c1)[C@@H](O)c1ccc(F)cc1` (racemic) [Example 139, N-((1RS,2SR)-2-(4-fluorophenyl)-2-hydroxy-1-((3-(trifluoromethyl)phenyl)methyl)ethyl)-4-phenylbutyramide]: the melting point is 110 to 111 °C.

`O=C(N[C@H](Cc1ccc(OC(F)(F)F)cc1)[C@@H](O)c1ccc(F)cc1)c1ccc(F)c2ccccc12` (racemic) [Example 134, 4-fluoro-N-[(1RS,2SR)-2-(4-fluorophenyl)-2-hydroxy-1-[4-(trifluoromethoxy)benzyl]ethyl]naphthalene-1-carboxamide] showed a melting point of 230 to 231 °C.

As for `O=C(O)c1ccc(COc2ccc([C@@H](O)[C@H](Cc3cccc(OC(F)(F)C(F)F)c3)NC(=O)c3cccc4c3C=CCCC4)cc2)cc1` (racemic) [Example 250, 4-[(4-{(1RS,2SR)-2-[(6,7-dihydro-5H-benzo[a][7]annulen-1-ylcarbonyl)amino]-1-hydroxy-3-[3-(1,1,2,2-tetrafluoroethoxy)phenyl]propyl}phenoxy)methyl]benzoic acid], the melting point lay in the range of 190 to 191 °C.

With `CC(C)Oc1cccc(C[C@@H](NC(=O)c2cccc3c2C=CCCC3)[C@@H](O)c2ccc(F)cc2)c1` (racemic) [Example 282, N-[(1RS,2SR)-2-(4-fluorophenyl)-2-hydroxy-1-(3-isopropoxybenzyl)ethyl]-6,7-dihydro-5H-benzo[a]cycloheptene-1-carboxamide], the melting point was in the range of 161 to 162 °C.

As for `COc1ccc([C@H](O)[C@@H](Cc2cccc(OC(F)(F)C(F)F)c2)NC(=O)c2cccc3c2C=CCCC3)cc1` (racemic) [Example 242, N-{(1RS,2SR)-2-hydroxy-2-(4-methoxyphenyl)-1-[3-(1,1,2,2-tetrafluoroethoxy)benzyl]ethyl}-6,7-dihydro-5H-benzo[a][7]annulene-1-carboxamide], the melting point was 151 to 152 °C.

Take `O=C(N[C@H](Cc1ccc(C(F)(F)F)cc1)[C@@H](O)c1ccc(F)c(F)c1)c1ccc(F)c2ccccc12` (racemic) [Example 183, N-((1RS,2SR)-2-(3,4-difluorophenyl)-2-hydroxy-1-((4-(trifluoromethyl)phenyl)methyl)ethyl)-4-fluoro-1-naphthalenecarboxamide]: the melting point lay in the range of 197 to 198 °C.

On to `O=C(N[C@H](Cc1ccc(C(F)(F)F)cc1)[C@@H](O)c1ccc(F)cc1)c1ccc(Cl)c2ccccc12` (racemic) [Example 34, 4-chloro-N-[(1RS,2SR)-2-(4-fluorophenyl)-2-hydroxy-1-[4-(trifluoromethyl)benzyl]ethyl]naphthalene-1-carboxamide], for which the melting point lay in the range of 222 to 223 °C.

Regarding `O=C(N[C@H](Cc1ccc(C(F)(F)F)cc1)[C@@H](O)c1ccc(F)cc1)c1cc([N+](=O)[O-])cc2c1CCCC2` (racemic) [Example 111, N-[(1RS,2SR)-2-(4-fluorophenyl)-2-hydroxy-1-[4-(trifluoromethyl)benzyl]ethyl]-3-nitro-5,6,7,8-tetrahydronaphthalene-1-carboxamide], the melting point is 216 to 217 °C.

In turn, `CC(C)(C)C(=O)NC(Cc1ccc(C(F)(F)F)cc1)C(O)c1ccc(F)cc1` (racemic) [Example 16, N-[2-(4-fluorophenyl)-2-hydroxy-1-[[4-(trifluoromethyl)phenyl]methyl]ethyl]-2,2-dimethylpropionamide] displayed a melting point of 97 to 99 °C.

`O=C(N[C@H](Cc1cccc(OC(F)(F)C(F)F)c1)[C@@H](O)c1cccc(F)c1)c1ccc(F)c2ccccc12` (racemic) [Example 263, 4-fluoro-N-{(1RS,2SR)-2-(3-fluorophenyl)-2-hydroxy-1-[3-(1,1,2,2-tetrafluoroethoxy)benzyl]ethyl}-1-naphthamide] had a melting point of 175 to 176 °C.

In the case of `O=C(CCc1ccccc1)N[C@H](Cc1ccc(C(F)(F)F)cc1)[C@@H](O)c1ccc(Cl)nc1` (racemic) [Example 203, N-((1RS,2SR)-2-(6-chloro-3-pyridyl)-2-hydroxy-1-((4-(trifluoromethyl)phenyl)methyl)ethyl)-3-phenylpropanamide], the melting point is 149 to 150 °C.

In turn, `O=C(NC(Cc1ccc(C(F)(F)F)cc1)C(O)c1ccc(F)cc1)c1cccs1` (racemic) [Example 11, N-[2-(4-fluorophenyl)-2-hydroxy-1-[[4-(trifluoromethyl)phenyl]methyl]ethyl]-2-thiophenecarboxamide] yielded a melting point of 135 to 164 °C.

Take `O=C(N[C@H](Cc1ccc(C(F)(F)F)cc1)[C@@H](O)c1ccc(F)cc1)c1cccc2c(F)cccc12` (racemic) [Example 32, 5-fluoro-N-[(1RS,2SR)-2-(4-fluorophenyl)-2-hydroxy-1-[4-(trifluoromethyl)benzyl]ethyl]naphthalene-1-carboxamide]: the melting point fell in the range of 222 to 224 °C.

Compound `CC(C)(C)OC(=O)N[C@H](Cc1cccc(S(=O)(=O)C(F)(F)F)c1)[C@@H](O)c1ccc(F)cc1` (racemic) [Example 279, tert-butyl (1RS,2SR)-2-(4-fluorophenyl)-2-hydroxy-1-{3-[(trifluoromethyl)sulfonyl]benzyl}ethylcarbamate] returned a melting point of 152 to 153 °C.

Consider `O=C(N[C@H](Cc1ccc(C(F)(F)F)cc1)[C@@H](O)c1cccc(F)c1)c1ccc(F)c2ccccc12` (racemic) [Example 176, 4-fluoro-N-((1RS,2SR)-2-(3-fluorophenyl)-2-hydroxy-1-((4-(trifluoromethyl)phenyl)methyl)ethyl)-1-naphthalenecarboxamide], for which the melting point lay in the range of 200 to 201 °C.

In turn, `O=C(CCc1ccccc1)N[C@H](Cc1ccc(C(F)(F)F)cc1)[C@@H](O)c1cccc(Oc2ccccc2)c1` (racemic) [Example 208, N-((1RS,2SR)-2-hydroxy-2-(3-phenoxyphenyl)-1-((4-(trifluoromethyl)phenyl)methyl)ethyl)-3-phenylpropanamide] yielded a melting point of 134 to 135 °C.

For the compound `O=C(N[C@H](Cc1cccc(O)c1)[C@@H](O)c1ccc(F)cc1)c1ccc(F)c2ccccc12` (racemic) [Example 286, 4-fluoro-N-[(1RS,2SR)-2-(4-fluorophenyl)-2-hydroxy-1-(3-hydroxybenzyl)ethyl]-1-naphthamide], the melting point was in the range of 179 to 180 °C.

Consider `CC(C)(C)c1ccc(C[C@@H](NC(=O)c2cccc3c(F)cccc23)[C@@H](O)c2ccc(F)cc2)cc1` (racemic) [Example 364, N-[(1RS,2SR)-1-(4-tert-butylbenzyl)-2-(4-fluorophenyl)-2-hydroxyethyl]-5-fluoro-1-naphthamide], for which the melting point fell in the range of 148 to 149 °C.

As to `COC(=O)c1ccc(COc2ccc([C@@H](O)[C@H](Cc3cccc(OC(F)(F)C(F)F)c3)NC(=O)c3cccc4c3C=CCCC4)cc2)cc1` (racemic) [Example 248, methyl 4-[(4-{(1RS,2SR)-2-[(6,7-dihydro-5H-benzo[a][7]annulen-1-ylcarbonyl)amino]-1-hydroxy-3-[3-(1,1,2,2-tetrafluoroethoxy)phenyl]propyl}phenoxy)methyl]benzoate], the melting point is 169 to 170 °C.
